Series [1] in a line: Determination of kinetic solubility. Type of series: physicochemical. The conditions noted are these: buffer solution pH 7.4, aqueous buffer, kinetic from dmso stock, pH 7.4, 24 hours at room temperature, theoretical maximum 200 μM. On the procedure:
The to-be-tested compound was dissolved in DMSO to prepare a 10 mmol/L stock solution. 980 μL of dissolution medium was pipetted into a 2 mL screw-capped glass vial by using a pipette (Eppendorf Research Company). 20 μL of the stock solution of each test compound and the QC sample were added to a buffer solution corresponding to a kinetic detection solution of pH 7.4. The final concentrations of the test compound and DMSO solution were 200 μM and 2%, respectively. The cover of the medicine bottle was screwed. The theoretical maximum concentration is 200 μM. The mixture was shaken at 880 rpm for 24 hours at room temperature. The vial was centrifuged for 30 minutes at 13,000 rpm. 200 μL of the supernatant was added to a 96-well plate by using a digital pipette. The solubility of the test compound was determined by high performance liquid chromatography, and the experimental results are shown in Table 2.

Series [2] concerns the target T1, CYP2C19 (Homo sapiens, UniProt P33261).
T1 construct: Mixed human liver microsomes (pooled HLM, n≥50) were purchased from Corning Inc; tissue Corning Inc. or other qualified suppliers; host or cells: pooled human liver microsomes (n≥50)
Briefly: Human liver microsome CYP inhibition experiment. The conditions noted are these: pooled human liver microsomes; read-out: Cytochrome P450 isoenzyme IC50 2C19. In kind it is in vitro ADME. On the procedure:
(§1) The research project used a specific probe substrate for each isoenzyme to evaluate the inhibitory effect of the test compound on human liver microsomal cytochrome P450 isoenzymes (CYPIA2. CYP2C9, CYP2C19, CYP2D6, and CYP3A4). Mixed human liver microsomes (pooled HLM, n≥50) were purchased from Corning Inc. (Steuben, N.Y., USA) or other qualified suppliers, and were stored in a refrigerator below −60° C. before use. The diluted series of to-be-tested compound working solutions were added to an incubation system containing cofactors of human liver microsomes, a probe substrate and a circulation system, and the methanol content was about 1% (v/v) of the final incubation system. A control containing no the to-be-tested compound and containing a solvent was used as a control for enzyme activity (100%). The concentration of the analyte in the sample was determined by liquid chromatography-tandem mass spectrometry (LC/MS/MS). The calculation was performed by using the average of the concentrations of the samples (a blank solvent, a positive control inhibitor, or the to-be-tested compound). Non-linear regression analysis was performed by using SigmaPlot (V.11) on the average percent activity of the compound to be tested to the concentration. The IC50 value was calculated by a three-parameter or four-parameter inflection logarithmic equation.

Series [3] concerns the target T2, CYP3A4 (Homo sapiens, UniProt P08684).
T2 construct: Mixed human liver microsomes (pooled HLM, n≥50) were purchased from Corning Inc; tissue Corning Inc. or other qualified suppliers; host or cells: pooled human liver microsomes (n≥50)
Kind of series: Human liver microsome CYP inhibition experiment. Type of series: in vitro ADME. The conditions noted are these: pooled human liver microsomes; read-out: Cytochrome P450 isoenzyme IC50 3A4. On the procedure: as §1

The target of series [4] is T3, CYP2D6 (Homo sapiens, UniProt P10635).
T3 construct: Mixed human liver microsomes (pooled HLM, n≥50) were purchased from Corning Inc; tissue Corning Inc. or other qualified suppliers; host or cells: pooled human liver microsomes (n≥50)
T3 sequence (P10635 whole entry): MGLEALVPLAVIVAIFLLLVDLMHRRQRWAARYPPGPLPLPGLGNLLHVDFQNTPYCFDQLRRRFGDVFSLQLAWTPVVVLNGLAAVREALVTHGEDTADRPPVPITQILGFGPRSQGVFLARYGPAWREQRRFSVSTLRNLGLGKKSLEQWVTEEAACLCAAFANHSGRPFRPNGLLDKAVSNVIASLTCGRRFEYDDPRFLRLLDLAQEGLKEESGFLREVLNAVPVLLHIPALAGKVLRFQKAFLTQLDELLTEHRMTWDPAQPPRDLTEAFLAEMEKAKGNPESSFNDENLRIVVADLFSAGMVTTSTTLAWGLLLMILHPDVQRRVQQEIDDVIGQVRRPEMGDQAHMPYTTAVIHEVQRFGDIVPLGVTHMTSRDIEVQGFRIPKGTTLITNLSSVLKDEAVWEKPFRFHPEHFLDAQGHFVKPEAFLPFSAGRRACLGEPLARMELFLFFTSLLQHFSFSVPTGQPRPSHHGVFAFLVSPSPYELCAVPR
Kind of series: Human liver microsome CYP inhibition experiment. Type of series: in vitro ADME. The conditions noted are these: pooled human liver microsomes; read-out: Cytochrome P450 isoenzyme IC50 2D6. As to the method:
as §1
Background: Microsomes from liver hold many membrane-bound enzymes, among them those of drug oxidation.

Series [5] has as its target T4, CYP2C9 (Homo sapiens, UniProt P11712).
T4 construct: Mixed human liver microsomes (pooled HLM, n≥50) were purchased from Corning Inc; tissue Corning Inc. or other qualified suppliers; host or cells: pooled human liver microsomes (n≥50)
Kind of series: Human liver microsome CYP inhibition experiment. In kind it is in vitro ADME. The note with it: pooled human liver microsomes; read-out: Cytochrome P450 isoenzyme IC50 2C9. As to the method: as §1

In series [6] the target is T5, CYP1A2 (Homo sapiens, UniProt P05177).
T5 construct: Mixed human liver microsomes (pooled HLM, n≥50) were purchased from Corning Inc; tissue Corning Inc. or other qualified suppliers; host or cells: pooled human liver microsomes (n≥50)
T5 sequence (P05177 1-516): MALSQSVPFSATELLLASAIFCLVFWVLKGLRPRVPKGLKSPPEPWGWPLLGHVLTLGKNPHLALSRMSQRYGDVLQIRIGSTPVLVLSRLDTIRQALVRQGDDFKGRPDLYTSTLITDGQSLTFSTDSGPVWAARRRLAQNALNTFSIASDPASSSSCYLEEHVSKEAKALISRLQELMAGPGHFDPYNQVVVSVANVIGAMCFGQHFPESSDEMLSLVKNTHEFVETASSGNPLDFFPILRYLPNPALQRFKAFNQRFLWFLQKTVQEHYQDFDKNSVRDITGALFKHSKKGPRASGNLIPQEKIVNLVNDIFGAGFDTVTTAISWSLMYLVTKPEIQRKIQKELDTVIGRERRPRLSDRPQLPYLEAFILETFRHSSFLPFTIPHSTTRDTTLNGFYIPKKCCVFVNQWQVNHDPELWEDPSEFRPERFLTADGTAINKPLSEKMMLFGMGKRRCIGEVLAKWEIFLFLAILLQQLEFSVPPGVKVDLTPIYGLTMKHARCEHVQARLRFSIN
Kind of series: Human liver microsome CYP inhibition experiment. The note with it: pooled human liver microsomes; read-out: Cytochrome P450 isoenzyme IC50 CYP1A2. Type of series: in vitro ADME. As to the method: as §1

≈ marks a conversion by molar mass, not a printed value. Bounds are passed on as bounds.

T2 sequence (P08684 whole entry): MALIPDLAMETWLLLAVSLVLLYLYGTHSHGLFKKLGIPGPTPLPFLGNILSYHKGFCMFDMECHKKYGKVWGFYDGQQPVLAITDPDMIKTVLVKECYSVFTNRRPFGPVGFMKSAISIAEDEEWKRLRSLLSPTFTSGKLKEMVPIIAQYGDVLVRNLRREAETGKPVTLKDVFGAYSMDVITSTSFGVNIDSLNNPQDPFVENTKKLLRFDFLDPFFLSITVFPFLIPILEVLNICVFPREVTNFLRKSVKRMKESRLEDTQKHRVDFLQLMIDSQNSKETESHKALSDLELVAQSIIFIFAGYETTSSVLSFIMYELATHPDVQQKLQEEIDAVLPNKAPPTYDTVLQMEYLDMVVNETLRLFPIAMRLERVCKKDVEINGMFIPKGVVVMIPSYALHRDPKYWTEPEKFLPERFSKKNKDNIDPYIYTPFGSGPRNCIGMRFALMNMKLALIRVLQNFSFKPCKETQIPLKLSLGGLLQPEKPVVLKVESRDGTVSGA
T4 sequence (P11712 whole entry): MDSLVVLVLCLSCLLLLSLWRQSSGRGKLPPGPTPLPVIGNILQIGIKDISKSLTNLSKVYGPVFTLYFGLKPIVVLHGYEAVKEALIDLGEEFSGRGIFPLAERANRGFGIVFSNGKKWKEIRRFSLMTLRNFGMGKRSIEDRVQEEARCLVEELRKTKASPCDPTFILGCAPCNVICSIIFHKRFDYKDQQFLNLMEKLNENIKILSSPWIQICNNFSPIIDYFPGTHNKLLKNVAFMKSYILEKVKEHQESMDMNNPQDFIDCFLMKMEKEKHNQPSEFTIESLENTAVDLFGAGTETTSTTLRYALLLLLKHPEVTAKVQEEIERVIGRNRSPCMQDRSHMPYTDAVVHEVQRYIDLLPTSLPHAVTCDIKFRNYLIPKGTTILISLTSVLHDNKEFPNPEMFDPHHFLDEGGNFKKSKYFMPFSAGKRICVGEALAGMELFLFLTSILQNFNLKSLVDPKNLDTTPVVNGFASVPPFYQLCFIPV
T1 sequence (P33261 whole entry): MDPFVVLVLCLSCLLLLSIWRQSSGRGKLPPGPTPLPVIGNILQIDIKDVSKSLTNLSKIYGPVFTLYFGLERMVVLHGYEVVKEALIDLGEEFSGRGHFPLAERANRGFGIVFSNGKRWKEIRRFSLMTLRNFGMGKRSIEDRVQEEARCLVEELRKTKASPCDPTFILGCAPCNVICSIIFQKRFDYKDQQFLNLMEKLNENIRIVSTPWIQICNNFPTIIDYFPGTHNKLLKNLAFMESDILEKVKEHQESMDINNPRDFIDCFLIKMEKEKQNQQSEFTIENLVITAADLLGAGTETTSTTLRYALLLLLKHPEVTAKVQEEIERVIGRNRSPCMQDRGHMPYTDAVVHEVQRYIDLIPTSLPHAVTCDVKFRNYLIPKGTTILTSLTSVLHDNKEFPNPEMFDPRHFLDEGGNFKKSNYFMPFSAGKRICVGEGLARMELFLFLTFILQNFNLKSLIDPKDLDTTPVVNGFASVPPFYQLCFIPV

The solubility is the concentration that dissolves in the medium under given conditions. Usually IC50 stands for the point on the concentration scale where inhibition reaches its midpoint. In series [1], `COc1ccc2c(c1OCc1ccccc1)C[C@@H](C(=O)O)N(C(=O)[C@@H](OC1CCCC1)c1ccccc1)C2` [Compound 37] showed a solubility at 24 h of more than 200 µM. Also, the half-inhibitory concentration (IC50) in series [2] was more than 50 µM; in series [3] it was more than 50 µM; in series [4], more than 50 µM; in series [5] it was 30.5 µM; in series [6], more than 50 µM.
In turn, `COc1ccc2c(c1OCc1ccccc1)C[C@@H](C(=O)O)N(C(=O)[C@@H](OC1CC(F)(F)C1)c1ccccc1)C2` [Compound 51] gave a solubility at 24 h in series [1] of 190 µM (≈ 102 µg/mL). For the same compound, the IC50 in series [2] was more than 50 µM; in series [3], more than 50 µM; in series [4] it was more than 50 µM; in series [5] it was 34.4 µM; in series [6], more than 50 µM.
The compound `COc1ccc2c(c1OCc1ccccc1)C[C@@H](C(=O)O)N(C(=O)[C@@H](O[C@H]1CC[C@@H](O)CC1)c1ccccc1)C2` [Compound 63] displayed a solubility at 24 h in series [1] of 190 µM (≈ 104 µg/mL). For the same compound, the half-inhibitory concentration (IC50) in series [2], in series [3], in series [4], in series [5] and in series [6] was more than 50 µM throughout.
`O=C(O)[C@@H]1Cc2c(ccc(Cl)c2OCc2ccccc2)CN1C(=O)[C@@H](OC1CCCC1)c1ccccc1` [Compound 107] showed a solubility at 24 h in series [1] of 181 µM (≈ 94.2 µg/mL). Moreover, the IC50 is more than 50 µM in series [2]; more than 50 µM in series [3]; more than 50 µM in series [4]; 14.5 µM in series [5]; more than 50 µM in series [6].
On to `COc1ccc2c(c1OCc1ccccc1)C[C@@H](C(=O)O)N(C(=O)C(c1ccccc1)c1ccccc1)C2` [EMA-401, reference compound], for which, in series [1], the solubility at 24 h came out at 192 µM (≈ 97.3 µg/mL). Further, the concentration for half-maximal inhibition (IC50) in series [2] was 17.6 µM; in series [3] it was 9.19 µM; in series [4] it was more than 50 µM; in series [5], 7.28 µM; in series [6], 13 µM.

The record behind these values is US11021445B2, “Carboxylic acid derivative as AT2R receptor antagonist” (SHANDONG DANHONG PHARMACEUTICAL CO., LTD., priority 2017, dated 2021).
